Consider six molecules from patent publication US20080159980A1, “Combination cancer therapy with a GST-activated anticancer compound and another anticancer therapy” (Telik, Inc., priority 2002, published 2008).

One test concerns the target T1, GST M1a-1a (Homo sapiens, UniProt P09488).
T1 sequence (P09488 1-218): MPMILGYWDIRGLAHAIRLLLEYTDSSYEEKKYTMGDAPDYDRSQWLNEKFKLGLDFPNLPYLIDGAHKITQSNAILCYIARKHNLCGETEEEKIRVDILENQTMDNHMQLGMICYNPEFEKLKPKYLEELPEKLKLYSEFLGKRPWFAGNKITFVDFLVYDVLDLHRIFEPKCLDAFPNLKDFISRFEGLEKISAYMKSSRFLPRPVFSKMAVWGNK
Conditions: cited from earlier work.

The test system of test [1] is human colon cancer cell line DLD-1. Put plainly: cells. Type of test: cell-based. Conditions: DLD-1, read-out: IC20 (concentration of TLK286 used in FIG. 2). The procedure: (§1) Assay methods. All assays were conducted in triplicate wells, with solvent control. The extent of cell growth was expressed as a percentage of the signal from the solvent control wells. The means were computed and graphed, with the standard deviations shown as error bars.
The human colon cancer cell line DLD-1 was seeded at 4×10^4 cells/mL, 150 μL/well, and allowed to attach to the wells overnight. The diluted compounds or solvent controls were then added at 50 μL/well. Incubation with TLK286 alone and in combination with oxaliplatin was continued for approximately four cell doublings, and cell viability was determined using the CellTiter-Glo assay (Promega Corporation, Madison, Wis., U.S.A.), used in accordance with the assay kit directions. […] The results were further analyzed using the Combination Index (CI) method with the “CalcuSyn” program from Biosoft.

A further test addresses T2, GST A1-1 (Homo sapiens, UniProt P08263).
T2 sequence (P08263 2-222 limits assumed): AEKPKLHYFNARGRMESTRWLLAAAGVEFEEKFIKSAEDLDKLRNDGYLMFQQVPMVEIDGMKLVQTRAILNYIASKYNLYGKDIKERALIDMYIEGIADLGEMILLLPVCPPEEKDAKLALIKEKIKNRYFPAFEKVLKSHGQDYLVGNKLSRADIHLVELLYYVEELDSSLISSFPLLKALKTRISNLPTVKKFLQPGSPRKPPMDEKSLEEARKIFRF
Conditions: cited from earlier work.

For test [2], the system named is MCF-7 human breast carcinoma cell line selected for resistance to cyclophosphamide. The settings on record: cyclophosphamide-resistant line overexpressing GST P1-1; Morgan et al. 1998; cited from earlier work.
Test [3] has as its system in vitro cell culture and tumor biopsies. The settings on record: Rosario et al. 2000; cited from earlier work.
The subject of test [4] is human ovarian cancer cell line OVCAR-3.
Procedure: The results were analyzed according to the Combination Index method with the “CalcuSyn” program from Biosoft.
Test [5] deals with M6709 human colon carcinoma cell line selected for resistance to doxorubicin. Conditions: doxorubicin-resistant line overexpressing GST P1-1; Morgan et al. 1998; cited from earlier work.
In test [6] the test system is murine xenografts of M7609 engineered to have high, medium, and low levels of GST P1-1. The settings on record: Morgan et al. 1998; cited from earlier work.
Test [7] has as its system human lung cancer cell line A-549. Put plainly: cells. Type of test: cell-based. The settings on record: A549, read-out: IC50 (concentration of TLK286 used in FIG. 5).
Test [8] deals with ovarian, breast, non-small cell lung, and colorectal cancers.
The target in another test is GST P1-1 (Homo sapiens, UniProt P09211). Conditions: releases cytotoxic phosphorodiamidate mustard moiety; cited from earlier work.
GST P1-1, sequence (P09211 2-210 limits assumed): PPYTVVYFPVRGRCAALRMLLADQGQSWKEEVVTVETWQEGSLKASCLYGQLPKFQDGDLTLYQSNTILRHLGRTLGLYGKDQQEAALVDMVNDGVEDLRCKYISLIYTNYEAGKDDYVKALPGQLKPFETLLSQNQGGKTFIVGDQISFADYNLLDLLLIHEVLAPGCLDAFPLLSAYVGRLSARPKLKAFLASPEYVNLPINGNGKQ
Test [9] concerns human non-Hodgkin's B cell lymphoma cell line RL. Put plainly: RL cell growth, method similar to Example 2 (Example 8). Type of test: cell-based. Conditions: RL cells.
For test [10], the system named is human breast cancer cell line MCF-7. Kind of test: MCF-7 cell proliferation, BrdU chemiluminescence assay (Example 4). Type of test: cell-based. The procedure: as §1
MCF-7 was seeded at 4×10^4 cells/mL, 150 μL/well, and allowed to attach to the wells for 4-5 hours. The diluted compounds or solvent controls were then added at 50 μL/well. Incubation with TLK286 alone and in combination with docetaxel was continued for one doubling, and cell proliferation was determined using the BrdU (chemiluminescence) assay, by labeling with BrdU (Roche Diagnostics Corporation, Indianapolis, Ind., U.S.A.) overnight. The assay is based on the incorporation of BrdU, an analogue of thymidine, during DNA synthesis. The incorporation of BrdU, which reflects the extent of cell proliferation, was then quantitated with an ELISA kit (also from Roche Diagnostics Corporation). The results were analyzed according to the Combination Index method.

Test [11] relates to human ovarian cancer cell line OVCAR-3. Put plainly: OVCAR-3 cell viability, Wst-1 assay (Example 1). Type of test: cell-based. The settings on record: OVCAR-3, Wst-1, approximately three cell doublings. The procedure: as §1
The diluted compounds or solvent controls were then added at 50 μL/well. […] The results were further analyzed using the Combination Index (CI) method with the “CalcuSyn” program from Biosoft.

Test [12] relates to human breast cancer cell line MX-1. Kind of test: MX-1 cell growth, method similar to Example 2 (Example 9). Type of test: cell-based. The settings on record: MX-1 cells.

Read-outs that look alike come from different tables or passages of the source.

As to `N[C@@H](CCC(=O)N[C@@H](CS(=O)(=O)CCOP(=O)(N(CCCl)CCCl)N(CCCl)CCCl)C(=O)NCC(=O)O)C(=O)O` [TLK231, L-γ-glutamyl-3-[[2-[[bis[bis(2-chloroethyl)amino]phosphinyl]oxy]ethyl]sulfonyl]-L-alanyl-glycine], at GST M1a-1a, the “activation by GST isoenzyme” value is recorded as “activated”.
For `N[C@@H](CCC(=O)N[C@@H](CS(=O)(=O)CCOP(=O)(N(CCCl)CCCl)N(CCCl)CCCl)C(=O)N[C@@H](C(=O)O)c1ccccc1)C(=O)O` [TLK286, L-γ-glutamyl-3-[[2-[[bis[bis (2-chloroethyl)amino]phosphinyl]oxy]ethyl]sulfonyl]-L-alanyl-2-phenyl-(2R)-glycine], the IC20 in [1] is around 9 µM. In addition, the “activation by GST isoenzyme” value at GST A1-1 and at GST P1-1 was “activated” each time. For the same molecule, the “potency in resistant line over parental cell line” value in test [2] and in test [5] was “more potent” in each case. In test [3], the “cross-resistance to platinum, paclitaxel, doxorubicin and gemcitabine” value was “non-cross-resistant”. For the same molecule, the “IC10 (concentration of TLK286 used in FIG. 3)” value in [4] is around 1.7 µM. Further, the “potency in xenografts versus GST P1-1 level” value in test [6] was “positively correlated with the level of GST P1-1”. Moreover, the IC50 in test [7] was around 4 µM. Moreover, the “single agent clinical activity” value in test [8] (colorectal and breast cancer) was “single agent antitumor activity”; in test [8] (patients with non-small cell lung cancer and ovarian cancer), “significant single agent antitumor activity and improvement in survival”. The “IC25 (concentration of TLK286 used in FIG. 8)” value in [9] is around 4.6 µM. Moreover, in [10] (MCF-7, BrdU incorporation, one doubling), the “IC40 (concentration of TLK286 used in FIG. 4)” value is around 3.3 µM. Further, the “IC30 (concentration of TLK286 used in FIG. 1)” value in test [11] is around 3.1 µM.
Consider `N[C@@H](CCC(=O)N[C@@H](Cc1cccc(S(=O)(=O)CCOP(=O)(N(CCCl)CCCl)N(CCCl)CCCl)c1)C(=O)NCC(=O)O)C(=O)O` [TLK296, L-γ-glutamyl-3-[[2-[[bis[bis(2-chloroethyl)amino]phosphinyl]oxy]ethyl]sulfonyl]-L-phenylalanyl-glycine], for which the “activation by GST isoenzyme” value on GST P1-1 is reported as “activated”.
Consider `C[C@@](NC(=O)[C@H](CS(=O)(=O)CCOP(=O)(N(CCCl)CCCl)N(CCCl)CCCl)NC(=O)CC[C@H](N)C(=O)O)(C(=O)O)c1ccccc1` [TLK303, L-γ-glutamyl-3-[[2-[[bis[bis(2-choroethyl)-amino]phosphinyl]oxy]ethyl]sulfonyl]-L-alanyl-2-phenyl-(2S) -alanine], for which the “activation by GST isoenzyme” value on GST A1-1 is given as “activated”.
For the molecule `CC(=O)O[C@@]12CO[C@@H]1C[C@H](O)[C@@]1(C)C(=O)[C@H](O)C3=C(C)[C@@H](OC(=O)[C@H](O)[C@@H](NC(=O)OC(C)(C)C)c4ccccc4)C[C@@](O)([C@@H](OC(=O)c4ccccc4)[C@H]21)C3(C)C` [docetaxel, reference compound], the “inhibition of proliferation at top of concentration range” value in test [10] (MCF-7, BrdU, docetaxel about 0.8 to 3 nM, from nearly no effect) is on record as around 60%.
Regarding `COc1cc2ncnc(Nc3ccc(F)c(Cl)c3)c2cc1OCCCN1CCOCC1` [gefitinib], the “IC30 (concentration of gefitinib used in FIG. 9)” value in test [12] is around 2.0 µM.
